Source: patent publication US9084818B2, “Topical dermal delivery compositions using self assembling nanoparticles with cetylated components” (CYMBIOTICS, INC., priority 2013, dated 2015)

How the values were obtained:
[1] = Minimum HLB needed for cetosome formation; assay type: physicochemical; conditions: surfactant HLB requirement to solubilize and stabilize within the cetosome
Description: Core components are also chosen with melting points between 40° to 75° C. This allows for thermal dissociation into the oil phase and strong affinity re-association as the temperature is reduced.

[2] = Pre-clinical pharmacokinetic feasibility study of oxybutynin cream on shaved rabbit backs; assay type: in vivo, rabbits
Description: Two levels of oxybutynin hydrochloride for use in the study were incorporated into the composition matrix: 5 mg/gm and 0.5 mg/ml. Three rabbits were chosen for each dosing. Animal backs were shaved were shaved 24 hrs prior to application. One gram was applied to the shaved area and rubbed in. This was covered by non-absorbent dressing. One milliliter of blood was collected from a marginal ear vein at baseline, 15 minutes, 1 hr, 6 hrs, 12 hrs and 24 hrs following dosing. Heparin was used as anticoagulant. Extracted samples were analyzed using an LC/MS-MS spectrometer (API 3000) with diazepam as an internal standard. Mobile phase was a 50:40:10 mixture (methanol:acetonitrile: 10 mM ammonium formate). The column used was a Phenomenex, Luna C18, 150×4.6 mm, 5 micron. Temperature for analysis was 30° C. with a flow rate of 1.0 ml/min with splitter with detection using ESI positive ion. Both oxybutynin and N-desethyl-oxybutynin were analyzed. N-desethyl-oxybutynin (DES) is a metabolite of oxybutynin considered to be associated with adverse secondary side effects.

[3] = Cream, 0.5 mg/ml, one gram topical, rabbit plasma, mean
[4] = rabbit, in vivo, topical or ocular, 5 mg

## CCCCCCCCCCCCCCCCO [Cetyl Alcohol]
[1]
  MINIMUM HLB NEEDED FOR CETOSOME FORMATION: 15.5

## CCCCCCCC/C=C\CCCCCCCC(=O)OCCCCCCCCCCCCCCCC [Cetyl Oleate]
other
  melting point: 58 to 60 °C
[1]
  MINIMUM HLB NEEDED FOR CETOSOME FORMATION: 10

## CCCCCCCCCCCCCCCCOC(=O)CCCCCCCCCCC [Cetyl Laurate]
other
  melting point: 43 to 45 °C
[1]
  MINIMUM HLB NEEDED FOR CETOSOME FORMATION: 10

## oxybutynin
[2]; [3]
  AUC 0-24 hr: 2.512 ng·h/mL
  Cmax: 0.836 ng/mL
  Tmax: 12 h

## CCNCC#CCOC(=O)C(O)(c1ccccc1)C1CCCCC1 (stereo not shown) [DES, N-desethyl-oxybutynin]
[2]; either level of dose application
  detection of the metabolite in plasma during the 24 hour period: not detectable
[2]; rabbit, in vivo, topical or ocular
  Tmax: <0.5 h

## CCN(CC)CC#CCOC(=O)C(O)(c1ccccc1)C1CCCCC1 (stereo not shown) [Oxybutynin, oxybutynin]
[2]; [4]
  AUC(0-t): 22 ng·h/mL
  Cmax: 9.33 ng/mL
  Tmax: 6 h

## CCCCCCCCCCCCCCCCCC(=O)OCCCCCCCCCCCCCCCC [Cetyl Stearate]
other
  melting point: 62 to 70 °C
[1]
  MINIMUM HLB NEEDED FOR CETOSOME FORMATION: 10

## CCCCCCCCCCCCCCCCOC(=O)CCCCCCCCCCCCCCC [Cetyl Palmitate]
[1]
  MINIMUM HLB NEEDED FOR CETOSOME FORMATION: 10

## CCCCCCCCCCCCCCCCOC(=O)CCCCCCCCCCCCC [Cetyl Myristate]
other
  melting point: 45 to 48 °C
[1]
  MINIMUM HLB NEEDED FOR CETOSOME FORMATION: 10

## CCCCCCCCCCCCCCCCOC(=O)CCCCCCC [Cetyl Octanoate]
other
  melting point: 52 to 60 °C
[1]
  MINIMUM HLB NEEDED FOR CETOSOME FORMATION: 10

## Cetyl Isomyristate
[1]
  MINIMUM HLB NEEDED FOR CETOSOME FORMATION: 10

## CCCCCC/C=C\CCCCCCCC(=O)OCCCCCCCCCCCCCCCC [Cetyl Palmitoleate]
other
  melting point: 45 to 52 °C
[1]
  MINIMUM HLB NEEDED FOR CETOSOME FORMATION: 10

## CCCCCCCCCCCCCCCCOC(=O)CCCCCCCCC [Cetyl Decanoate]
other
  melting point: 40 to 44 °C
[1]
  MINIMUM HLB NEEDED FOR CETOSOME FORMATION: 10
